Measurements as given in patent US10857105B2, “Compounds and compositions for intracellular delivery of therapeutic agents” (ModernaTX, Inc., priority 2017, dated 2020).

Tests used:
[1] = Particle size and polydispersity index of nanoparticle compositions (Zetasizer Nano ZS); assay type: physicochemical
Procedure, shortened: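 Size and PDI measured by Zetasizer Nano ZS in 1×PBS (zeta potential in 15 mM PBS). Lipid nanoparticles contained test ionizable lipid:DSPC:cholesterol:PEG-DMG at 50:10:38.5:1.5 mol % with N1-methyl-pseudouridine mRNA encoding luciferase or hEPO.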

[2] = test system: luciferase (Luc) mRNA; assay: Luciferase expression (whole body bioluminescence) after intravenous administration to mice; assay type: in vivo
Experimental: In order to monitor how effectively various nanoparticle compositions deliver therapeutic and/or prophylactics to targeted cells, different nanparticle compositions including a particular therapeutic and/or prophylactic (for example, a modified or naturally occurring RNA such as an mRNA) are prepared and administered to rodent populations. Mice are intravenously, intramuscularly, intraarterially, or intratumorally administered a single dose including a nanoparticle composition with a formulation such as those provided in Example 3. In some instances, mice may be made to inhale doses. Dose sizes may range from 0.001 mg/kg to 10 mg/kg, where 10 mg/kg describes a dose including 10 mg of a therapeutic and/or, prophylactic in a nanoparticle composition for each 1 kg of body mass of the mouse. A control composition including PBS may also be employed.
Upon administration of nanoparticle compositions to mice, dose delivery profiles, dose responses, and toxicity of particular formulations and doses thereof can be measured by enzyme-linked immunosorbent assays (ELISA), bioluminescent imaging, or other methods. For nanoparticle compositions including mRNA, time courses of protein expression can also be evaluated. Samples collected from the rodents for evaluation may include blood, sera, and tissue (for example, muscle tissue from the site of an intramuscular injection and internal tissue); sample collection may involve sacrifice of the animals.
The efficacy of the nanoparticle compositions presented in Table 1A was evaluated with a bioluminescence study. Formulations were administered intravenously to mice (n=6) at a dosage of 0.5 mg/kg (mpk) and bioluminescence measured at 3, 6, and 24 hour time points. The standard MC3 formulation and, in some instances, a control (e.g., a PBS control) were evaluated for comparison. […] In general, flux decreased as time progressed to less than 10% of the initial flux.
The total flux (measured by area under the curve, AUC) induced by administration of a formulation including a given lipid relative to that induced by administration of a formulation including MC3 was also measured for several lipids.

[3] = test system: modified luciferase; assay: Luciferase expression in liver, lung, spleen and femur 6 hours after intravenous administration to mice; assay type: in vivo; conditions: 6 hours after intravenous 0.5 mpk, mice
Procedure, shortened: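 Nanoparticle formulations of the modified luciferase were given intravenously to mice (n=3) at 0.5 mpk. Bioluminescence was measured after 6 hours as total light flux. Standard MC3 formulation and PBS run as controls.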

[4] = Encapsulation efficiency of RNA in nanoparticle compositions (RIBOGREEN assay); assay type: physicochemical; conditions: Table 1A; lipid:DSPC:cholesterol:PEG-DMG 50:10:38.5:1.5 mol %
Experimental: For nanoparticle compositions including an RNA, a QUANT-IT™ RIBOGREEN® RNA assay (Invitrogen Corporation Carlsbad, Calif.) can be used to evaluate the encapsulation of an RNA by the nanoparticle composition. The samples are diluted to a concentration of approximately 5 μg/mL, in a TE buffer solution (10 mM Tris-HCl, 1 mM EDTA, pH 7.5). 50 μL of the diluted samples are transferred to a polystyrene 96 well plate and either 50 μL of TE buffer or 50 μL of a 2% Triton X-100 solution is added to the wells. The plate is incubated at a temperature of 37° C. for 15 minutes. The RIBOGREEN® reagent is diluted 1:100 in TE buffer, and 100 μL of this solution is added to each well. The fluorescence intensity can be measured using a fluorescence plate reader (Wallac Victor 1420 Multilabel Counter; Perkin Elmer, Waltham, Mass.) at an excitation wavelength of, for example, about 480 nm and an emission wavelength of, for example, about 520 nm. The fluorescence values of the reagent blank are subtracted from that of each of the samples and the percentage of free RNA is determined by dividing the fluorescence intensity of the intact sample (without addition of Triton X-100) by the fluorescence value of the disrupted sample (caused by the addition of Triton X-100).
Initial studies were performed to compare the delivery efficiency of nanoparticle compositions including various compounds according to Formula (I), (IA), (IB), (II), (IIa), (IIb), (IIc), (IId), (IIe), (IIf), (IIg), or (III). The cationic lipid MC3 is a current standard in the art. Accordingly, the standard MC3 formulation including about 50 mol % MC3, about 10 mol % DSPC, about 38.5 mol % cholesterol, and about 1.5 mol % PEG-DMG was used as a basis for this study. Nanoparticle compositions including DSPC as a phospholipid, cholesterol as a structural lipid, PEG-DMG as a PEG lipid, an RNA, and a compound according to Formula (I), (IA), (IB), (II), (IIa), (IIb), (IIc), (IId), (IIe), (IIf), (IIg), or (III) selected from Compounds 1-159, 168-170, and 173-175 were prepared according to or via methods similar to those described in Examples 1 and 2. The ratios of the lipids were 50:10:38.5:1.5 mol % for the lipid according to Formula (I), (IA), (IB), (II), (IIa), (IIb), (IIc), (IId), (IIe), (IIf), (IIg), or (III):DSPC:cholesterol:PEG-DMG. The RNA used was an mRNA encoding luciferase (Luc) or hEPO, wherein each uridine was replaced N1-methyl pseudouridine. Tables 1A-1E summarize the content and characteristics of the formulations.

[5] = Table 1A, lipid:DSPC:cholesterol:PEG-DMG 50:10:38.5:1.5 mol %
[6] = intravenous administration (Table 3D)

CCCCCCCCC(CCCCCCCC)OC(=O)CCCCCCCN(CCO)CCCCCCCC(=O)OC1CCC(CCCCC)CC1 (centres unmarked) [Compound 66, Heptadecan-9-yl 8-((2-hydroxyethyl)(8-oxo-8-((4-pentylcyclohexyl)oxy)octyl)amino)octanoate]
Size [1, 5]: 76.7 nm
AUC ([2]; i.v. administration (Table 3C)): 6.76E+11 h*p/s
Total Flux, Liver [3]: 5.01E+09
Total Flux, Lung [3]: 4.20E+06
Total Flux, Spleen [3]: 2.00E+07

CCCCCCCCCOC(=O)CCCCCCCN(CCCCCCCC(=O)OC(CCCCCCCC)CCCCCCCC)CCN1CCN(C)CC1 [Compound 101, Heptadecan-9-yl 8-((2-(4-methylpiperazin-1-yl)ethyl)(8-(nonyloxy)-8-oxooctyl)amino)octanoate]
Size [1, 5]: 91.7 nm
AUC ([2]; i.v. administration (Table 3C)): 1.8E+09 h*p/s
Total Flux, Liver [3]: 1.27E+07
Total Flux, Lung [3]: 1.77E+05
Total Flux, Spleen [3]: 5.60E+06

CCCCCCCCCOC(=O)CCCCCCCN(CCCCCCCC(=O)OC(CCCCCCCC)CCCCCCCC)CCCNC(=S)NC [Compound 113, Heptadecan-9-yl 8-((3-(3-methylthioureido)propyl)(8-(nonyloxy)-8-oxooctyl)amino)octanoate]
Size [1, 5]: 86.8 nm
Size ([1]; Table 1C, compositions for subcutaneous administration): 83.9 nm
Novel lipid/MC3 ratio, i.v. ([2]; Table 3G, intravenous, luciferase, 6 hr. timepoint, relative to MC3): 0.59
Novel lipid/MC3 expression ratio, i.v. ([2]; intravenous, luciferase, 6 hr. time point, relative to MC3 formulation): 0.59
Total Flux, Liver [3]: 1.11E+09
Total Flux, Lung [3]: 5.55E+06
Total Flux, Spleen [3]: 5.22E+07

CCCCCCCCCOC(=O)CCCCCCCN(CCO)CCCCCCCCCOP(=O)(OCCCCCCCCC)OCCCCCCCCC [Compound 127, Nonyl 8-((9-((bis(nonyloxy)phosphoryl)oxy)nonyl)(2-hydroxyethyl)amino)octanoate]
Size [1, 5]: 110.4 nm
EE [4]: 89.5%
Total Flux, Liver [3]: 1.94E+08
Total Flux, Lung [3]: 5.26E+06
Total Flux, Spleen [3]: 3.21E+08

CCCCCCCCCCCOC(=O)CCCCCN(CCO)CCCCCCCC(=O)N(CCCCCCCC)CCCCCCCC [Compound 129, Undecyl 6-((8-(dioctylamino)-8-oxooctyl)(2-hydroxyethyl)amino)hexanoate]
Size [1, 5]: 86.3 nm
EE [4]: 77.2%
Total Flux, Liver [3]: 6.65E+08
Total Flux, Lung [3]: 9.89E+06
Total Flux, Spleen [3]: 5.09E+08

CCCCCCCCCOC(=O)CCCCCCCN(CCO)CCCCCCCOP(=O)(OCCCCCCCC)OCCCCCCCC [Compound 131, Nonyl 8-((7-((bis(octyloxy)phosphoryl)oxy)heptyl)(2-hydroxyethyl)amino)octanoate]
EE [4]: 75.44%
AUC ([2]; i.v. administration (Table 3C)): 9.29E+10 h*p/s
Total Flux, Liver [3]: 3.52E+08
Total Flux, Lung [3]: 1.45E+07
Total Flux, Spleen [3]: 8.32E+08

CCCCCCCCOP(=O)(OCCCCCCCC)OCCCCCCCN(CCO)CCCCCCCC(=O)OC(C)CCCCCCCC (centres unmarked) [Compound 132, Decan-2-yl 8-((7-((bis(octyloxy)phosphoryl)oxy)heptyl)(2-hydroxyethyl)amino)octanoate]
EE [4]: 30.77%
AUC ([2]; i.v. administration (Table 3C)): 1.75E+10 h*p/s
Total Flux, Liver [3]: 1.49E+08
Total Flux, Lung [3]: 1.39E+07
Total Flux, Spleen [3]: 3.37E+08

CCCCCCCCC(CCCCCCCC)OC(=O)CCCCCCCN(CCO)CCCCCCCC(=O)N(C)CCCCCCCC [Compound 145, Heptadecan-9-yl 8-((2-hydroxyethyl)(8-(methyl(octyl)amino)-8-oxooctyl)amino)octanoate]
EE [4]: 89.15%
AUC ([2]; i.v. administration (Table 3C)): 8.1E+10 h*p/s
Total Flux, Liver [3]: 5.01E+08
Total Flux, Lung [3]: 1.36E+07
Total Flux, Spleen [3]: 4.25E+08

CCCCCCCCC(CCCCCCCC)OC(=O)CCCCCCCN(C)CCCCCCCCCC(=O)OCCCCCCC [Compound 149, Heptyl 10-((8-(heptadecan-9-yloxy)-8-oxooctyl)(methyl)amino)decanoate]
Size [1, 5]: 62.1 nm
AUC [2, 6]: 1.057E+011 p/s*h
Total Flux, Liver [3]: 1.11E+09
Total Flux, Lung [3]: 2.69E+06
Total Flux, Spleen [3]: 2.71E+07

CCCCCCCCCOC(=O)CCCCCCCN(CCO)CCCCCCC/C=C\C(CCCCCCCC)CCCCCCCC [Compound 152, Nonyl (Z)-8-((2-hydroxyethyl)(10-octyloctadec-8-en-1-yl)amino)octanoate]
Size [1, 5]: 62.6 nm
AUC [2, 6]: 2.855E+010 p/s*h
Total Flux, Liver [3]: 1.43E+08
Total Flux, Lung [3]: 3.16E+05
Total Flux, Spleen [3]: 6.63E+06

CCCCCCCCCOC(=O)CCCCCCCN(CCO)CCCCCCCCCC(CCCCCCCC)CCCCCCCC [Compound 153, Nonyl 8-((2-hydroxyethyl)(10-octyloctadecyl)amino)octanoate]
Size [1, 5]: 83.7 nm
AUC [2, 6]: 2.697E+011 p/s*h
Total Flux, Liver [3]: 1.18E+09
Total Flux, Lung [3]: 6.42E+06
Total Flux, Spleen [3]: 1.42E+08

CCCCCCCCCOC(=O)CCCCCCCN(CCO)CCN(CCO)CCCCCCCC(=O)OC(CCCCCCCC)CCCCCCCC [Compound 159, Heptadecan-9-yl 8-((2-hydroxyethyl)(2-((2-hydroxyethyl)(8-(nonyloxy)-8-oxooctyl)amino)ethyl)amino)octanoate]
Size [1, 5]: 75.9 nm
AUC [2, 6]: 1.355E+008 p/s*h
Total Flux, Liver [3]: 1.13E+06
Total Flux, Lung [3]: 2.17E+05
Total Flux, Spleen [3]: 7.24E+05
